# Source: paper PMC3130094 (Pharmacological research : the official journal of the …, 2011)
# Values joined by “and” are separate entries in the source; they are usually repeats but may differ in a detail not shown here. Equal entries are not always repeated. “Also recorded” adds a separate entry of the source. Where two headings read alike, the source gives them in different places. Non-standard residues stand in square brackets, D forms with d. Residues, ends and D or L forms follow the SMILES beside them. No end group written: not given here.
# Legend:
# [1] = system: ND7/104 cells; test: Ratiometric Fura-2 calcium imaging, ND7/104 cells; type: cell-based, rat/mouse hybrid; conditions: for Effect on ET-1 (30 nM) calcium transient: MDL-12,330A 50 µM, five minutes before ET-1, ND7/104 cells
# [2] = system: HEK 293 cells; test: Ratiometric Fura-2 calcium imaging, HEK 293 cells; type: cell-based, human
# [3] = system: HEK 293T cells; test: Ratiometric Fura-2 calcium imaging, HEK 293T cells; type: cell-based, human; conditions: for Effect on ET-1 (30 nM) calcium transient: MDL-12,330A 50 µM, five minutes before ET-1, HEK 293T cells
# [4] = system: ET receptors (ETA/ETB) on intact HEK 293 cells; conditions: for Ki: HEK 293 cells
# [5] = biological target: T1, ET receptors (ETA/ETB) on intact HEK 293T cells (Homo sapiens, UniProt P25101); conditions: read-out: High affinity KI BQ-123; HEK 293T cells, high affinity site (assumed ETA)
# T1 sequence (P25101 21-427): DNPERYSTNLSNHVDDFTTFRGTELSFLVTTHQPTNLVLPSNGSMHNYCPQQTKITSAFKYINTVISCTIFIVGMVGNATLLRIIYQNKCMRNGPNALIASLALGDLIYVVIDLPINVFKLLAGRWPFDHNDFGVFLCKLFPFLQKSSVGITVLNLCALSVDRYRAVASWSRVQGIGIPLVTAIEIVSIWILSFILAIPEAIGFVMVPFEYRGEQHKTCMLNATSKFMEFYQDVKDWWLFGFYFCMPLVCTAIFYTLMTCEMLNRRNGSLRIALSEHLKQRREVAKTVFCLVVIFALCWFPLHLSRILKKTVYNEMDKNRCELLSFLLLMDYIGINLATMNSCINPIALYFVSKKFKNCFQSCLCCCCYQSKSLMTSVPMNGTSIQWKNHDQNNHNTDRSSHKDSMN
# [6] = system: ET receptors (ETA/ETB) on intact HEK 293T cells
# [7] = system: ET receptors (ETA/ETB) on intact ND7/104 cells; test: Competition binding against 30 pM [125I]-ET-1, intact ND7/104 cells; set-up: species or system rat/mouse hybrid; conditions: 100 nM BQ-123, ND7/104 cells
# [8] = system: ND7/104 cells; test: Intracellular cAMP enzyme immunoassay, ND7/104 cells; type: cell-based, rat/mouse hybrid; conditions: ET-1 0.3 nM to 300 nM, 10 min 37 °C
# [9] = system: HEK 293T cells; test: Intracellular cAMP enzyme immunoassay, HEK 293T cells; type: cell-based, human; conditions: ET-1 0.3 nM to 300 nM, 10 min 37 °C
# [10] = biological target: ET receptors in pituitary tissue sections; conditions: pituitary tissue sections ref [32]; cited from earlier work
# [11] = biological target: cloned tagged-ETB receptors; conditions: HEK 293 membranes ref [33]; cited from earlier work
# [12] = biological target: cloned tagged-ETA receptors; conditions: HEK 293 membranes ref [33]; cited from earlier work
# [13] = system: ET receptors on intact ND7/104 cells; test: [125I]-ET-1 saturation binding to intact ND7/104 cells; set-up: species or system rat/mouse hybrid; conditions: read-out: KD (I-ET-1), 4 °C
compound,measurement,setting,value
Nc1ncnc2c1ncn2[C@@H]1O[C@H](COP(=O)(O)OP(=O)(O)OP(=O)(O)O)[C@@H](O)[C@H]1O [ATP],Calcium response to ATP,"[1]; ATP 40 µM, ND7/104 cells",induced a strong and comparable calcium response
same,Calcium response to ATP,[2]; ATP 40 µM,induced a strong and comparable calcium response
same,Calcium response to ATP,"[3]; ATP 40 µM, HEK 293T cells",induced a strong and comparable calcium response
CC(C)C[C@@H]1NC(=O)[C@@H](C(C)C)NC(=O)[C@@H]2CCCN2C(=O)[C@@H](CC(=O)O)NC(=O)[C@@H](Cc2c[nH]c3ccccc23)NC1=O [BQ-123] (cyclo(L[dW][dD]P[dV]); ring closure inferred),"ETA binding defined by BQ-123, share of specific [125I]-ET-1 binding","[4]; 100 nM BQ-123, HEK 293 cells",85.3 ± 19% and 85 ± 19%
same,Ki,"[4]; read-out: KI (BQ-123), 30 pM [125I]-ET-1",0.39 ± 0.14 nM
same,Ki,"[4]; read-out: Low affinity KI BQ-123, low affinity site",195 ± 136 nM
same,Effect on ET-1 (30 nM) stimulated calcium increase,"[1]; BQ-123 50 nM, ND7/104 cells",blocked; also recorded: completely prevented
same,Ki,[5],5.47 ± 1.52 nM
same,"ETA binding defined by BQ-123, share of specific [125I]-ET-1 binding","[6]; 100 nM BQ-123, HEK 293T cells",75 ± 9%
same,Low affinity Ki BQ-123,"[6]; HEK 293T cells, low affinity site",too high to allow its estimation
same,Ki,"[6]; read-out: KI (BQ-123), HEK 293T cells, 30 pM [125I]-ET-1",0.21 ± 0.01 nM
same,Effect on ET-1 (30 nM) stimulated calcium increase,"[3]; BQ-123 50 nM, HEK 293T cells",blocked; also recorded: completely prevented
same,"ETA binding defined by BQ-123, share of specific [125I]-ET-1 binding",[7],75.2 ± 22.2% and 75 ± 22%
CCCC[C@@H](NC(=O)[C@@H](Cc1cn(C(=O)OC)c2ccccc12)NC(=O)[C@H](CC(C)(C)C)NC(=O)N1[C@H](C)CCC[C@@H]1C)C(=O)O [BQ-788],Effect on ET-1 (30 nM) stimulated calcium increase,"[1]; BQ-788 100 nM (Figure 6B: 100 and 200 nM), ND7/104 cells",without effect; also recorded: not affected
same,Effect on ET-1 (30 nM) stimulated calcium increase,"[3]; BQ-788 100 nM (Figure 6B: 100 and 200 nM), HEK 293T cells",without effect; also recorded: not affected
Cc1cc(C)cc(C(=O)N(C)[C@H](Cc2ccc(-c3ccccc3)cc2)C(=O)N[C@@H](Cc2c[nH]c3ccccc23)C(=O)O)c1 [IRL-2500],Effect on ET-1 (30 nM) stimulated calcium increase,"[1]; IRL-2500 50 nM, ND7/104 cells",without effect; also recorded: not affected
same,Effect on ET-1 (30 nM) stimulated calcium increase,"[3]; IRL-2500 50 nM, HEK 293T cells",without effect; also recorded: not affected
"Cl.c1ccc(C2CCCC2NC2=NCCCCCCCCCCC2)cc1 (stereo not drawn) [MDL-12,330A]",Effect on calcium response to ATP,"[1]; MDL 12,330A 50 µM preincubation, ND7/104 cells",markedly diminished response to ATP
same,Effect on ET-1 (30 nM) calcium transient,[1],same outcome
same,Effect on ET-1 (30 nM) calcium transient,"[1]; listed as MDL 12,330A",did not affect negatively
same,Basal [Ca2+]in on application of antagonist/inhibitor alone,"[1]; ND7/104 cells, MDL 12,330A 50 µM, data not shown",did not produce a significant effect; also recorded: did not elicit a significant rise of [Ca^2+]in
same,Basal [Ca2+]in on application of antagonist/inhibitor alone,"[3]; HEK 293T cells, MDL 12,330A 50 µM, data not shown",did not produce a significant effect; also recorded: did not elicit a significant rise of [Ca^2+]in
same,Effect on ET-1 (30 nM) calcium transient,[3],same outcome
same,Effect on ET-1 (30 nM) calcium transient,"[3]; listed as MDL 12,330A",did not affect negatively
COc1ccc2c(c1)CC[C@@H]1[C@@H]2CC[C@]2(C)[C@@H](NCCCCCCN3C(=O)C=CC3=O)CC[C@@H]12 [U73122],Effect on ET-1 (30 nM) induced calcium transient,"[1]; U73122 10 µM, 30 min pretreatment, normalized to ionomycin, ND7/104 cells",complete inhibition
same,Effect on calcium response to ATP,"[1]; U73122 10 µM, ND7/104 cells",abrogated
same,Effect on response elicited by bradykinin,"[1]; U73122, ND7/104 cells, data not shown",does not inhibit
same,Effect on ET-1 (30 nM) induced calcium transient,"[3]; U73122 10 µM, 30 min pretreatment, normalized to ionomycin, HEK 293T cells",complete inhibition
same,Effect on calcium response to ATP,"[3]; U73122 10 µM, HEK 293T cells",abrogated
"Endothelin-1 (CSCSSLMDKECVYFCHLDIIW; ends and bridges not checked; cysteine pairing not given here; UniProt P05305 53-73, looked up) [ET-1]",Share of cells showing [Ca2+]in mobilization,"[1]; ET-1 30 nM and 100 nM, ND7/104 cells",~ 35%
same,[Ca2+]in response to ET-1 (normalized to ATP 40 µM),"[1]; ET-1 30 or 100 nM, ND7/104 cells",caused an increase in [Ca]in
same,[Ca2+]in response to ET-1 in the absence of extracellular calcium,"[1]; calcium-free Ringer, ND7/104 cells",not diminished; also recorded: did not affect the response
same,Intracellular cAMP accumulation,[8],did not record a rise of intracellular cAMP; also recorded: None of the ET-1 concentrations tested produced a significant effect
same,[Ca2+]in response to ET-1 (normalized to ATP 40 µM),[2]; ET-1 30 or 100 nM,neither of these concentrations of ET-1 produced a detectable increase of [Ca^2+]in; also recorded: does not promote intracellular calcium mobilization; also recorded: this effect was not observed
same,Share of cells showing [Ca2+]in mobilization,"[3]; ET-1 30 nM and 100 nM, HEK 293T cells",~ 35%
same,[Ca2+]in response to ET-1 (normalized to ATP 40 µM),"[3]; ET-1 30 or 100 nM, HEK 293T cells",caused an increase in [Ca]in
same,[Ca2+]in response to ET-1 in the absence of extracellular calcium,"[3]; calcium-free Ringer, HEK 293T cells",not diminished; also recorded: did not affect the response
same,Intracellular cAMP accumulation,[9],did not record a rise of intracellular cAMP; also recorded: None of the ET-1 concentrations tested produced a significant effect
[^125I]-ET-1: radio-iodinated endothelin-1 used as radioligand,Kd,[10],0.071 nM
same,Kd,[11],~0.01 nM
same,Kd,[12],~0.03 nM
same,Kd,[13],0.07 ± 0.01 nM
